Our source for the IC50 and melting point values is patent US6582351B1, “Imidazopyridinone derivatives and their use as phosphodiesterase inhibitors” (Fujisawa Pharmaceutical Co., Ltd., priority 1999, dated 2003).

What is called IC50 is the concentration that gives 50% inhibition. Read a low IC50 as greater potency. As a reminder, the melting point is the temperature, or range, at which the solid turns liquid.

In the first data set the target is T1, human platelet PDE-V (Homo sapiens, UniProt O76074).
T1 construct: Human platelet cGMP-PDE was separated from other isozymes in human platelets; from tissue; host or cells: human platelets
In words: cGMP-Phosphodiesterase (PDE) assay; enzymatic inhibitory test against human platelet PDE-V. Type of data set: biochemical. To be noted: 0.1 μM [3H]-cGMP substrate, 30° C., 10 minutes. The protocol:
[II] Test Method: cGMP-Phosphodiesterase (PDE) Assay
Human platelet cGMP-PDE was separated from other isozymes in human platelets by a modification of the method of Thompson et. al. (see Cyclic Nucleotide Phosphodiesterase (PDE), in Methods of Enzymatic analysis, Vol 4, p127-234, 1984). Specific inhibitory activity of PDE-V was measured by following procedure. In enzyme inhibition assays, the test compounds were dissolved in DMSO and then diluted with assay buffer (50 mM Tris-HCl, 0.077 mg/ml dithiothreitol and 10 mg/ml snake venom, 1 mM EGTA, pH 8.0), at final concentrations ranging from 10^−10 to 10^−6 M. Assays were performed at 0.1 μM substrate ([^3H]-cGMP) concentration, at 30° C. for 10 minutes using enzyme dilutions which gave 10-20% hydrolysis of substrate. Each assay was initiated by addition of substrate and terminated by addition of anion exchange resin (Dowex® 1-X8, […]) followed by centrifugation for 10 minutes (3000 rpm, at 4° C.). Radioactivity of supernatant ([^3H]-GMP) was assayed by liquid scintillation counting.
Turning to `COc1ccc(Cn2c(=O)n([C@H]3CCN(C(=O)OC(C)(C)C)C3)c3ccc(C#N)cc32)cc1Cl` [Example 2(60), 1-[(S)-1-tert-Butoxycarbonylpyrrolidin-3-yl]-3-(3-chloro-4-methoxybenzyl)-5-cyano-2,3-dihydro-1H-benzimidazol-2-one], the IC50 is less than 0.01 µM.
Same read-out and setting: for `COc1ccc(Cn2c(=O)n(C3CCC4OC(C)(C)OC4C3)c3ccc(C#N)cc32)cc1Cl` (stereo not drawn) [Example 2(95), 3-(3-Chloro-4-methoxybenzyl)-5-cyano-1-(t-3,t-4-isopropylidenedioxy-r-1-cyclohexyl)-2,3-dihydro-1H-benzimidazol-2-one] the value was less than 0.01 µM.

System in a further data set: not given
Test: not given
Conditions: not given
Compound `COc1ccc(Cn2c(=O)n([C@H]3CC[C@H](NC(=O)OC(C)(C)C)CC3)c3ccc(C(F)(F)F)cc32)cc1Cl` [Example 2(99), 1-[trans-4-(N-tert-Butoxycarbonylamino)cyclohexyl]-3-(3-chloro-4-methoxybenzyl)-5-trifluoromethyl-2,3-dihydro-1H-benzimidazol-2-one] showed a melting point of 185.5 to 187 °C.
Same read-out and setting: for `COc1ccc(Cn2c(=O)n([C@H]3CC[C@H](O)CC3)c3ncc(C#N)cc32)cc1Br` [Example 2(100), 1-(3-Bromo-4-methoxybenzyl)-6-cyano-3-(trans-4-hydroxycyclohexyl)-2,3-dihydro-1H-imidazo[4,5-b]pyridin-2-one] the value was 114 to 116 °C.
As for `COc1ccc(Cn2c(=O)n([C@H]3CC[C@H](O)CC3)c3ncc(C#N)cc32)cc1C` [Example 2(101), 6-Cyano-3-(trans-4-hydroxycyclohexyl)-1-(4-methoxy-3-methylbenzyl)-2,3-dihydro-1H-imidazo[4,5-b]pyridin-2-one], the melting point lay in the range of 168 to 169 °C.
Same read-out and setting: for `COc1ccc(Cn2c(=O)n([C@H]3CC[C@H](O)CC3)c3ncc(C#N)cc32)cc1C#N` [Example 2(102), 6-Cyano-1-(3-cyano-4-methoxybenzyl)-3-(trans-4-hydroxycyclohexyl)-2,3-dihydro-1H-imidazo[4,5-b]pyridin-2-one] the value was 133 to 134 °C.
On the same count and under the same terms, then `COc1ccc(Cn2c(=O)n([C@H]3CCN(C(=O)OC(C)(C)C)C3)c3ncc(C(F)(F)F)cc32)cc1Cl` [Example 2(103), 3-((S)-1-tert-Butoxycarbonylpyrrolidin-3-yl)-1-(3-chloro-4-methoxybenzyl)-6-trifluoromethyl-2,3-dihydro-1H-imidazo[4,5-b]pyridin-2-one], with 87 to 89 °C.
On the same count and under the same terms, for `COc1ccc(Cn2c(=O)n(-c3ccc4nc[nH]c4c3)c3ncc(C#N)cc32)cc1Cl` [Example 2(104), 3-(Benzimidazol-5-yl)-1-(3-chloro-4-methoxybenzyl)-6-cyano-2,3-dihydro-1H-imidazo[4,5-b]pyridin-2-one] the value was 163 to 166 °C.
`COc1ccc(Cn2c(=O)n(-c3ccc4[nH]ccc4c3)c3ncc(C#N)cc32)cc1Cl` [Example 2(105), 1-(3-Chloro-4-methoxybenzyl)-3-(1H-indol-5-yl)-6-cyano-2,3-dihydro-1H-imidazo[4,5-b]pyridin-2-one]: the melting point lay within 281 to 282 °C.
The same measure, in the same setting: then `COc1ccc(Cn2c(=O)n(C(C)(C)CO)c3ncc(C(F)(F)F)cc32)cc1Cl` [Example 3, 1-(3-chloro-4-methoxybenzyl)-3-(1,1-dimethyl-2-hydroxyethyl)-6-trifluoromethyl-2,3-dihydro-1H-imidazo[4,5-b]pyridin-2-one], with 195 to 197 °C.
The compound `COc1ccc(Cn2c(=O)n([C@H]3CC[C@H](O)CC3)c3ccc(S(C)(=O)=O)cc32)cc1Cl` [Example 4(3), 3-(3-Chloro-4-methoxybenzyl)-1-(trans-4-hydroxycyclohexyl)-5-methylsulfonyl-2,3-dihydro-1H-benzimidazol-2-one] came in with a melting point of 265 to 265.5 °C.
`COc1ccc(Cn2c(=O)n([C@H](C)CO)c3ccc(C(F)(F)F)cc32)cc1Cl` [Example 4(4), 3-(3-Chloro-4-methoxybenzyl)-1-((R)-2-hydroxy-1-methylethyl)-5-trifluoromethyl-2,3-dihydro-1H-benzimidazol-2-one]: the melting point is 108 to 109 °C.
In turn, `COc1ccc(Cn2c(=O)n([C@H]3CC[C@H](O)CC3)c3ccc(C(=O)c4ccccc4)cc32)cc1Cl` [Example 4(6), 5-Benzoyl-3-(3-chloro-4-methoxybenzyl)-1-(trans-4-hydroxycyclohexyl)-2,3-dihydro-1H-benzimidazol-2-one] had a melting point of 160.5 to 162 °C.
On to `COc1ccc(Cn2c(=O)n(CCO)c3ccc(C(F)(F)F)cc32)cc1Cl` [Example 4(7), 3-(3-Chloro-4-methoxybenzyl)-1-(2-hydroxyethyl)-5-trifluoromethyl-2,3-dihydro-1H-benzimidazol-2-one], for which the melting point was in the range of 106 to 107 °C.
Still for that read-out and setting: then `COc1ccc(Cn2c(=O)n([C@H](C)CO)c3ncc(C#N)cc32)cc1Cl` [Example 4(8), 1-(3-Chloro-4-methoxybenzyl)-6-cyano-3-((R)-2-hydroxy-1-methylethyl)-2,3-dihydro-1H-imidazo[4,5-b]pyridin-2-one], with 164 to 165 °C.
In turn, `COc1ccc(Cn2c(=O)n([C@H]3CC[C@H](N)CC3)c3ccc(C(F)(F)F)cc32)cc1Cl` [Example 8(4), 1-(trans-4-Aminocyclohexyl)-3-(3-chloro-4-methoxybenzyl)-5-trifluoromethyl-2,3-dihydro-1H-benzimidazol-2-one] gave a melting point of 167 to 168.5 °C.
Still for that read-out and setting: for `COc1ccc(Cn2c(=O)n([C@H]3CC[C@H](NC(N)=O)CC3)c3ccc(C(F)(F)F)cc32)cc1Cl` [Example 14(2), 1-(trans-4-Ureidocyclohexyl)-3-(3-chloro-4-methoxybenzyl)-5-trifluoromethyl-2,3-dihydro-1H-benzimidazol-2-one] the value was 164 to 165.5 °C; for `COc1ccc(Cn2c(=O)n([C@H]3CC[C@H](O)CC3)c3ncc(C(F)(F)F)cc32)cc1OC` [Example 18, 1-(3,4-dimethoxybenzyl)-3-(trans-4-hydroxycyclohexyl)-6-trifluoromethyl-2,3-dihydro-1H-imidazo[4,5-b]pyridin-2-one], 128 to 130 °C; for `COc1ccc(Cn2c(=O)n([C@H]3CC[C@H](O)CC3)c3ncc(C(F)(F)F)cc32)cc1Cl` [Example 19(2), 1-(3-Chloro-4-methoxybenzyl)-3-(trans-4-hydroxycyclohexyl)-6-trifluoromethyl-2,3-dihydro-1H-imidazo[4,5-b]pyridin-2-one], 121 to 123 °C.
Still for that read-out and setting: then `O=c1n(Cc2ccc(Cl)c(Cl)c2)c2cc(C(F)(F)F)cnc2n1[C@H]1CC[C@H](O)CC1` [Example 19(3), 1-(3,4-Dichlorobenzyl)-3-(trans-4-hydroxycyclohexyl)-6-trifluoromethyl-2,3-dihydro-1H-imidazo[4,5-b]pyridin-2-one], with 170 to 171.5 °C; and `COc1ccc(Cn2c(=O)n([C@H]3CC[C@H](O)CC3)c3ccc(C)cc32)cc1OC` [Example 19(4), 3-(3,4-Dimethoxybenzyl)-1-(trans-4-hydroxycyclohexyl)-5-methyl-2,3-dihydro-1H-benzimidazol-2-one], with 174 to 175 °C.
Same read-out and setting: then `COc1ccc(Cn2c(=O)n([C@H]3CC[C@H](O)CC3)c3ccc(C(=O)O)cc32)cc1Cl` [Example 19(5), 5-Carboxy-3-(3-chloro-4-methoxybenzyl)-1-(trans-4-hydroxycyclohexyl)-2,3-dihydro-1H-benzimidazol-2-one], with 275 to 276 °C; and `COc1ccc(Cn2c(=O)n([C@H]3CC[C@H](O)CC3)c3ncc(C(=O)O)cc32)cc1Cl` [Example 19(25), 6-Carboxy-1-(3-chloro-4-methoxybenzyl)-3-(trans-4-hydroxycyclohexyl)-2,3-dihydro-1H-imidazo[4,5-b]pyridin-2-one], with 262 to 262.5 °C; and `COc1ccc(Cn2c(=O)n([C@H]3CC[C@H](O)CC3)c3ccc(C(N)=O)cc32)cc1Cl` [Example 20, 5-carbamoyl-3-(3-chloro-4-methoxybenzyl)-1-(trans-4-hydroxycyclohexyl)-2,3-dihydro-1H-benzimidazol-2-one], with 291.5 to 292 °C.
The compound `COc1ccc(Cn2c(=O)n([C@H]3CC[C@H](O)CC3)c3ncc(C(=O)NCc4cccnc4)cc32)cc1Cl` [Example 21(2), 1-(3-Chloro-4-methoxybenzyl)-6-(3-picolylcarbamoyl)-3-(trans-4-hydroxycyclohexyl)-2,3-dihydro-1H-imidazo[4,5-b]pyridin-2-one] registered a melting point of 134 to 135 °C.
On the same count and under the same terms, for `COc1ccc(Cn2c(=O)n([C@H]3CC[C@H](OC(C)=O)CC3)c3ccc([N+](=O)[O-])cc32)cc1OC` [Example 22(1), 1-(trans-4-Acetoxycyclohexyl)-3-(3,4-dimethoxybenzyl)-5-nitro-2,3-dihydro-1H-benzimidazol-2-one] the value was 207 to 207.5 °C.
Same read-out and setting: then `COc1ccc(Cn2c(=O)n([C@H]3CC[C@@H](O)CC3)c3ncc(C#N)cc32)cc1Cl` [Example 24, 1-(3-chloro-4-methoxybenzyl)-6-cyano-3-(cis-4-hydroxycyclohexyl)-2,3-dihydro-1H-imidazo[4,5-b]pyridin-2-one], with 197 to 198 °C.
